Measurements as given in patent US8912144B2, “Method for treating stroke via administration of NEP1-40 and inosine” (Children's Medical Center Corporation, priority 2003, dated 2014).

Tested on: corticospinal neurons (CSNs/CSMNs)
Assay: Laser-capture microdissection and Illumina microarray gene expression in corticospinal neurons contralateral to stroke
Type: in vivo, rat
Procedure: In a separate group of animals (n=20), layer V pyramidal cells of the sensorimotor cortex were retrogradely labeled by injecting Alexa-Fluor-488-conjugated cholera toxin B subunit (CTB; 300 U/μl in sterile saline) into the cervical spinal cord. For this, animals were anesthetized with a combination of ketamine and Domitor (medetomidine) and a laminectomy was performed at the cervical level of the spinal cord (C2-C4). CTB was stereotaxically delivered into four sites lateral to the corticospinal tract. Injections (1.3 μl) were spaced 1 mm apart on the rostro-caudal axis, and were made 0.5 mm to the left and right of the midline. After allowing two weeks for transport of the tracer, we performed either sham surgery with no treatment (n=6) or stroke surgery combined with saline (n=3) or inosine (n=4) treatment as described above. Seven days later, animals were decapitated under transient gas anesthesia, brains were removed and rinsed in cold RPMI medium, and a tissue block containing the sensorimotor cortex was dissected and placed in OCT Tissue Tek Medium (Sakura Finetek USA Inc., CA) on dry ice within five minutes of death. Ten μm sections were cut onto precleaned Gold Seal RITE-ON glass slides (Gold Seal Prod-ucts, Portsmouth, N.H.), placed on dry ice, and rapidly stored at −80° C.
Slide-mounted sections were thawed and dehydrated in RNAse-free ethanol gradients and xylene. Retro-gradely labeled, fluorescent cortical pyramidal cells in the undamaged hemisphere were individually captured using the Arcturus VERITAS system. ≧500 cells were collected from each animal and stored in Arcturus extraction buffer at −80° C. Total RNA was extracted from cells using the Micro-to-Midi TotalRNA Purification System (Invitrogen, Carlsbad Calif.) and double-amplified using the TargetAmp 2-Round Aminoallyl-aRNA Amplification kit 1.0 (Epicentre, Madison, Wis.). Amplified RNA was checked for average fragment length using the Agilent RNA 6000 Nano LabChip kit (Agilent Technologies, Santa Clara, Calif.) and then biotinylated and hybridized (1 μg) on Illumina RatRef-12 Expression BeadChip arrays (Illumina, San Diego Calif.), querying the expression of >22,000 RefSeq-curated rat transcripts. Results were obtained from a total of 15 samples representing 6 untreated controls, 4 animals with stroke treated with saline and 5 animals with stroke treated with inosine. Slides were processed and scanned with Illumina BeadStation platform according to the manufacturer protocol.
Raw data was analyzed using Bioconductor packages (www.bioconductor.org, (Gentleman et al., 2004)). Low level quality-control analysis was performed using inter-array Pearson correlation and clustering based on variance. Two arrays (1 saline and 1 inosine-treated) were outliers and were excluded from the analysis. Data was normalized using quantile normalization, and analysis of differential expression was performed using a linear model fitting (LIMMA package, (Smyth, 2005). Differentially expressed genes were classified according to gene ontology using Bioconductor packages and online tools (DAVID, http://david.abcc.ncifcrf.gov/). Pathway analysis was carried out using Ingenuity Pathway Analysis (Ingenuity Systems, www.ingenuity.com).

Q: `OC[C@H]1O[C@@H](n2cnc3c(O)ncnc32)[C@H](O)[C@@H]1O` [inosine] was tested. Which “Signal Intensity, Spnb4” value (ILMN_66300, inosine after stroke) did it give?
A: 1147

Q: And the “Fold-Induction Stroke, ino vs. cntrl, Bbp” value (ILMN_66323)?
A: 0.58

Q: What about the “Signal Intensity, Bbp” value (ILMN_66323, inosine after stroke) of the same compound?
A: 1150

Q: What about the “Fold-Induction Stroke, ino vs. cntrl, LOC305122” value (ILMN_66350) of the same compound?
A: 0.58

Q: What about the “Signal Intensity, LOC305122” value (ILMN_66350, inosine after stroke) of the same compound?
A: 771

Q: And the “Fold-Induction Stroke, ino vs. cntrl, Plekhb1” value (ILMN_66651)?
A: 0.62

Q: And the “Signal Intensity, Plekhb1” value (ILMN_66651, inosine after stroke)?
A: 1687

Q: And the “Fold-Induction Stroke, ino vs. cntrl, Ppp1r11” value (ILMN_66809)?
A: 0.90

Q: And the “Signal Intensity, Ppp1r11” value (ILMN_66809, inosine after stroke)?
A: 865

Q: And the “Fold-Induction Stroke, ino vs. cntrl, LOC501538” value (ILMN_66820)?
A: 0.64

Q: And the “Signal Intensity, LOC501538” value (ILMN_66820, inosine after stroke)?
A: 1132

Q: What about the “Fold-Induction Stroke, ino vs. cntrl, Slc25a11” value (ILMN_66823) of the same compound?
A: 0.65

Q: And the “Signal Intensity, Slc25a11” value (ILMN_66823, inosine after stroke)?
A: 263

Q: What about the “Fold-Induction Stroke, ino vs. cntrl, Optn” value (ILMN_67016) of the same compound?
A: 0.69

Q: And the “Signal Intensity, Optn” value (ILMN_67016, inosine after stroke)?
A: 360

Q: And the “Fold-Induction Stroke, ino vs. cntrl, Lxn” value (ILMN_67020)?
A: 0.72

Q: What about the “Signal Intensity, Lxn” value (ILMN_67020, inosine after stroke) of the same compound?
A: 433

Q: What about the “Fold-Induction Stroke, ino vs. cntrl, Psmc5” value (ILMN_67036) of the same compound?
A: 0.54

Q: What about the “Signal Intensity, Psmc5” value (ILMN_67036, inosine after stroke) of the same compound?
A: 1620

Q: And the “Fold-Induction Stroke, ino vs. cntrl, MGC72992” value (ILMN_67222)?
A: 0.63

Q: What about the “Signal Intensity, MGC72992” value (ILMN_67222, inosine after stroke) of the same compound?
A: 359

Q: And the “Fold-Induction Stroke, ino vs. cntrl, Ywhaq” value (ILMN_67273)?
A: 0.66

Q: And the “Signal Intensity, Ywhaq” value (ILMN_67273, inosine after stroke)?
A: 2844

Q: What about the “Fold-Induction Stroke, ino vs. cntrl, LOC498696” value (ILMN_67275) of the same compound?
A: 0.51

Q: And the “Signal Intensity, LOC498696” value (ILMN_67275, inosine after stroke)?
A: 514

Q: What about the “Fold-induction CSMNs: Cd63” value (ILMN_67382, over and above inosine's effect of decreasing stroke-induced changes) of the same compound?
A: 2.10 fold

Q: And the “Fold-Induction Stroke, ino vs. cntrl, Ggcx” value (ILMN_67463)?
A: 0.93

Q: What about the “Signal Intensity, Ggcx” value (ILMN_67463, inosine after stroke) of the same compound?
A: 526

Q: And the “Fold-Induction Stroke, ino vs. cntrl, Kif3b” value (ILMN_67572)?
A: 0.79

Q: What about the “Signal Intensity, Kif3b” value (ILMN_67572, inosine after stroke) of the same compound?
A: 642

Q: And the “Fold-Induction Stroke, ino vs. cntrl, Zfp422” value (ILMN_67578)?
A: 0.99

Q: And the “Signal Intensity, Zfp422” value (ILMN_67578, inosine after stroke)?
A: 557

Q: And the “Fold-induction CSMNs: Ms4a6b” value (ILMN_67686, over and above inosine's effect of decreasing stroke-induced changes)?
A: 2.03 fold

Q: What about the “Fold-Induction Stroke, ino vs. cntrl, Dcamkl1” value (ILMN_67724) of the same compound?
A: 0.59

Q: And the “Signal Intensity, Dcamkl1” value (ILMN_67724, inosine after stroke)?
A: 4398

Q: What about the “Fold-Induction Stroke, ino vs. cntrl, LOC501601” value (ILMN_67885) of the same compound?
A: 0.54

Q: And the “Signal Intensity, LOC501601” value (ILMN_67885, inosine after stroke)?
A: 791

Q: And the “Fold-Induction Stroke, ino vs. cntrl, Ca2” value (ILMN_67903)?
A: 0.47

Q: What about the “Signal Intensity, Ca2” value (ILMN_67903, inosine after stroke) of the same compound?
A: 1008

Q: And the “Fold-Induction Stroke, ino vs. cntrl, LOC287622” value (ILMN_67961)?
A: 0.69

Q: And the “Signal Intensity, LOC287622” value (ILMN_67961, inosine after stroke)?
A: 400

Q: And the “Fold-induction CSMNs: Gfap” value (ILMN_68224, over and above inosine's effect of decreasing stroke-induced changes)?
A: 2.46 fold

Q: And the “Fold-Induction Stroke, ino vs. cntrl, Lkap” value (ILMN_68337)?
A: 0.64

Q: And the “Signal Intensity, Lkap” value (ILMN_68337, inosine after stroke)?
A: 758

Q: What about the “Fold-Induction Stroke, ino vs. cntrl, Gsn” value (ILMN_68511) of the same compound?
A: 0.64

Q: And the “Signal Intensity, Gsn” value (ILMN_68511, inosine after stroke)?
A: 2157

Q: What about the “Fold-Induction Stroke, ino vs. cntrl, Flot2” value (ILMN_68584) of the same compound?
A: 0.70

Q: What about the “Signal Intensity, Flot2” value (ILMN_68584, inosine after stroke) of the same compound?
A: 667

Q: What about the “Fold-Induction Stroke, ino vs. cntrl, Rab40b” value (ILMN_68736) of the same compound?
A: 0.63

Q: And the “Signal Intensity, Rab40b” value (ILMN_68736, inosine after stroke)?
A: 476

Q: What about the “Fold-Induction Stroke, ino vs. cntrl, Dhcr24” value (ILMN_68892) of the same compound?
A: 0.53

Q: And the “Signal Intensity, Dhcr24” value (ILMN_68892, inosine after stroke)?
A: 1032

Q: And the “Fold-Induction Stroke, ino vs. cntrl, Sfxn3” value (ILMN_68903)?
A: 0.57

Q: What about the “Signal Intensity, Sfxn3” value (ILMN_68903, inosine after stroke) of the same compound?
A: 261

Q: And the “Fold-Induction Stroke, ino vs. cntrl, Tde2” value (ILMN_68952)?
A: 0.53

Q: What about the “Signal Intensity, Tde2” value (ILMN_68952, inosine after stroke) of the same compound?
A: 545

Q: And the “Fold-Induction Stroke, ino vs. cntrl, RGD1309158” value (ILMN_69031)?
A: 0.52

Q: What about the “Signal Intensity, RGD1309158” value (ILMN_69031, inosine after stroke) of the same compound?
A: 630

Q: And the “Fold-Induction Stroke, ino vs. cntrl, LOC289036” value (ILMN_69224)?
A: 0.72

Q: And the “Signal Intensity, LOC289036” value (ILMN_69224, inosine after stroke)?
A: 1532

Q: And the “Fold-induction CSMNs: Arpc1b” value (ILMN_69642, over and above inosine's effect of decreasing stroke-induced changes)?
A: 2.31 fold

Q: And the “Fold-Induction Stroke, ino vs. cntrl, Ubl3” value (ILMN_69708)?
A: 0.83

Q: What about the “Signal Intensity, Ubl3” value (ILMN_69708, inosine after stroke) of the same compound?
A: 479

Q: What about the “Fold-Induction, complement cascade gene Bf (B-factor, properdin)” value (ILMN_69719, LCM-captured CSMNs contralateral a stroke) of the same compound?
A: 2.73 fold

Q: What about the “Fold-Induction Stroke, ino vs. cntrl, LOC296126” value (ILMN_69931) of the same compound?
A: 0.64

Q: And the “Signal Intensity, LOC296126” value (ILMN_69931, inosine after stroke)?
A: 332

Q: And the “Fold-Induction Stroke, ino vs. cntrl, LOC315463” value (ILMN_69949)?
A: 0.54

Q: What about the “Signal Intensity, LOC315463” value (ILMN_69949, inosine after stroke) of the same compound?
A: 709

Q: What about the “Fold-Induction Stroke, ino vs. cntrl, Zfp216” value (ILMN_70270) of the same compound?
A: 0.66

Q: And the “Signal Intensity, Zfp216” value (ILMN_70270, inosine after stroke)?
A: 888

Q: And the “Fold-induction CSMNs: A2m” value (ILMN_70335, over and above inosine's effect of decreasing stroke-induced changes)?
A: 4.10 fold

Q: And the “Fold-Induction Stroke, ino vs. cntrl, LOC366188” value (ILMN_70369)?
A: 0.85

Q: And the “Signal Intensity, LOC366188” value (ILMN_70369, inosine after stroke)?
A: 1100
